The assay relates to rat small-intestinal brush border membrane vesicles. Put plainly: Inhibitory effect on 33PO4 uptake into rat small-intestinal brush border membrane vesicles (rapid filtration method). The format is biochemical. The settings on record: 33PO4 uptake into rat small-intestinal BBMVs; test compound 1 µM; reacted for 60 seconds. Here is the method:
Brush border membrane vesicles (BBMVs) were prepared using the upper region of the small intestine of each Wistar female rat (4-5 weeks old). […] The ^33PO4 transport activity of the small-intestinal BBMVs was determined by the rapid filtration method. […] Then, ice-cold buffer C (110 mM NaCl, 1 mM KH2PO4, and 10 mM HEPES (pH 7.5)) was added to each reaction mixture, which was immediately suctionfiltered through a Millipore filter. The filter was washed with buffer C, and each sample was then dissolved in a liquid scintillator. The amount of ^33PO4 uptake into BBMVs was measured using a liquid scintillation counter. […]
As for `CN(C)S(=O)(=O)N1CCC(c2cc(C(F)(F)F)ccc2NC(=O)C2=C(O)[C@@]3(C)CCCN3N(Cc3cccc(F)c3F)C2=O)CC1` [Example 110], the “Rate of uptake inhibition (%) (1 µM)” value was 57%.
To `CN1N(Cc2cccc(F)c2F)C(=O)C(C(=O)Nc2ccc(Cl)cc2-c2ccc(C(F)(F)F)nc2)=C(O)C12CCC2` [Example 256] belongs 79%; to `C[C@]12CCCN1N(Cc1cccc(F)c1F)C(=O)C(C(=O)Nc1ccc(Br)c(F)c1)=C2O` [Example 28], 72%; to “(4aR)-N-[2-(6-Cyano-5-methoxypyridin-1-yl)-4-(trifluoromethyl)phenyl]-1-[(2,3-difluorophenyl)methyl]-4-hydroxy-4a-methyl-2-oxo-6,7-dihydro-5H-pyrrolo[1,2-b] pyridazine-3-carboxamide [Example 114]”, 86%.
`CN1N(Cc2ccc(OCCN3CCOCC3)c(F)c2F)C(=O)C(C(=O)Nc2ccc(C(F)(F)F)cc2-c2ccc(C(F)(F)F)nc2)=C(O)C1(C)C` [Example 314, 2-[[2,3-Difluoro-4-(2-morpholin-4-ylethoxy)phenyl)methyl]-5-hydroxy-1,6,6-trimethyl-3-oxo-N-[4-(trifluoromethyl)-2-[6-(trifluoromethyl)pyridin-3-yl]phenyl]pyridazine-4-carboxamide]: the “Rate of uptake inhibition (%) (1 µM)” value worked out at 72%.
To `COC(=O)[C@@H]1CCCN1CCOc1ccc(CN2C(=O)C(C(=O)Nc3ccc(C(F)(F)F)cc3-c3cc(C(F)(F)F)ncn3)=C(O)C3(CCC3)N2C)c(F)c1F` [Example 355] belongs 36%; to “(4aR)-1-[(3-Fluorophenyl)methyl]-4-hydroxy-4a-methyl-N-[5-methyl-2-(trifluoromethyl)furan-3-yl]-2-oxo-6,7-dihydro-5H-pyrrolo[1,2-b]pyridazine-3-carboxamide [Example 6]”, 48%; to `C[C@]12CCCN1N(Cc1cccc(F)c1)C(=O)C(C(=O)Nc1ccc(C(F)(F)F)cc1-c1ccc(C(F)(F)F)nc1)=C2O` [Example 206], 76%.
To `CN1[C@@H](C(C)(C)C)C(O)=C(C(=O)Nc2ccc(C(F)(F)F)cc2-c2ccc(C(F)(F)F)nc2)C(=O)N1Cc1cccc(F)c1F` [Example 238] belongs 47%.
As for `CCN(CCN(C)CCOC)c1ccc(CN2C(=O)C(C(=O)Nc3ccc(C(F)(F)F)cc3-c3cc(C(F)(F)F)ncn3)=C(O)C3(CCCC3)N2C)c(F)c1F` [Example 443], the figure is 28%.
Consider `CN1[C@@H](C(C)(C)C)C(O)=C(C(=O)Nc2cc(F)c(Br)c(F)c2)C(=O)N1Cc1cccc(F)c1F` [Example 240], for which the “Rate of uptake inhibition (%) (1 µM)” value was determined as 72%.
To `CN1N(Cc2ccc(OCCCOC[C@H](O)CO)c(F)c2F)C(=O)C(C(=O)Nc2ccc(C(F)(F)F)cc2-c2ccc(C(F)(F)F)nc2)=C(O)C12CCC2` [Example 383] belongs 26%; to `C[C@]12CCCN1N(Cc1ccc(F)cc1F)C(=O)C(C(=O)Nc1ccc(C(F)(F)F)cc1-c1ccc(C(F)(F)F)nc1)=C2O` [Example 173], 73%; to `COc1cccc(-c2cc(C(F)(F)F)ccc2NC(=O)C2=C(O)[C@@]3(C)CCCN3N(Cc3ccc(C#CCOCCCO)c(F)c3F)C2=O)c1OC` [Example 127], 95%.
`CCC1(CC)C(O)=C(C(=O)Nc2ccc(C(F)(F)F)cc2-c2ccc(C(F)(F)F)nc2)C(=O)N(Cc2ccc(OCCN3CCOCC3)c(F)c2F)N1C` [Example 293]: the “Rate of uptake inhibition (%) (1 µM)” value is 47%.
For the compound `C[C@]12CCCN1N(Cc1ccc(OCCCCOC[C@H](O)CO)c(F)c1F)C(=O)C(C(=O)Nc1ccc(Cl)cc1-c1ccc(C(F)(F)F)nc1)=C2O` [Example 121, (4aR)-N-[4-Chloro-2-[6-(trifluoromethyl)pyridin-3-yl]phenyl]-1-[[4-[4-[(2R)-2,3-dihydroxypropoxy]butoxy]-2,3-difluorophenyl]methyl]-4-hydroxy-4a-methyl-2-oxo-6,7-dihydro-5H-pyrrolo[1,2-b]pyridazine-3-carboxamide], the “Rate of uptake inhibition (%) (1 µM)” value is given as 72%.
In the case of `C[C@]12CCCN1N(Cc1cccc(F)c1F)C(=O)C(C(=O)Nc1cc(F)c(Br)c(F)c1)=C2O` [Example 29], the “Rate of uptake inhibition (%) (1 µM)” value amounted to 75%.
As for `COc1ncc(-c2cc(C(F)(F)F)ccc2NC(=O)C2=C(O)[C@@]3(C)CCCN3N(Cc3cccc(F)c3F)C2=O)c(OC)n1` [Example 72], the figure is 92%; as for `COCC(C)(C)N(C)CCOc1ccc(CN2C(=O)C(C(=O)Nc3ccc(C(F)(F)F)cc3-c3cc(C(F)(F)F)ncn3)=C(O)C3(CCC3)N2C)c(F)c1F` [Example 349], 55%; as for `Cc1c(C#N)ncnc1-c1cc(C(F)(F)F)ccc1NC(=O)C1=C(O)C(C)(C)N(C)N(Cc2cccc(F)c2F)C1=O` [Example 311], 65%.
To “(4aS)-1-[(5,6-Difluoro-1H-indol-7-yl)methyl]-4-hydroxy-N-[5-methyl-2-(trifluoromethyl)furan-3-yl]-2-oxo-5,6,7,8-tetrahydro-4aH-pyrido[1,2-b]pyridazine-3-carboxamide [Example 17]” belongs 33%; to `CN1N(Cc2ccc(OCCN3CCOCC3)c(F)c2F)C(=O)C(C(=O)Nc2ccc(Cl)cc2-c2cc(C(F)(F)F)ncn2)=C(O)C12CCCCC2` [Example 297], 36%.
For `C[C@]12CCCN1N(Cc1cccc(F)c1F)C(=O)C(C(=O)Nc1ccc(Br)cn1)=C2O` [Example 78], the “Rate of uptake inhibition (%) (1 µM)” value is 71%.
To `C[C@]12CCCN1N(Cc1ccc(F)cc1)C(=O)C(C(=O)Nc1ccc(C(F)(F)F)cc1-c1ccc(C(F)(F)F)nc1)=C2O` [Example 199] belongs 79%.
Turning to `Cc1c(-c2cc(C(F)(F)F)ccc2NC(=O)C2=C(O)C3(CCC3)N(C)N(Cc3ccc(OCCN4CCOCC4)c(F)c3F)C2=O)ncnc1C(F)(F)F` [Example 285], the “Rate of uptake inhibition (%) (1 µM)” value is on record as 62%.
Regarding `CN(C[C@H](O)[C@@H](O)[C@H](O)[C@H](O)CO)C(=O)CCOCCOCCOc1ccc(CN2C(=O)C(C(=O)Nc3ccc(C(F)(F)F)cc3-c3cc(C(F)(F)F)ncn3)=C(O)C3(CCCC3)N2C)c(F)c1F` [Example 422], the “Rate of uptake inhibition (%) (1 µM)” value was determined as 29%.
As for `CN1N(Cc2cccc(F)c2F)C(=O)C(C(=O)Nc2ccc(Cl)cc2-c2cc(C(F)(F)F)ncn2)=C(O)C12CCCC2` [Example 261], the figure is 77%; as for `CCN1[C@@H](C(C)(C)C)C(O)=C(C(=O)Nc2cc(F)c(Br)c(F)c2)C(=O)N1Cc1cccc(F)c1F` [Example 246], 52%; as for `Cc1cc(NC(=O)C2=C(O)[C@H]3CCCN3N(Cc3cccc(F)c3)C2=O)c(C(F)(F)F)o1` [Example 2, (4aR)-1-[(3-Fluorophenyl)methyl]-4-hydroxy-N-[5-methyl-2-(trifluoromethyl)furan-3-yl]-2-oxo-4a,5,6,7-tetrahydropyrrolo[1,2-b]pyridazine-3-carboxamide], 19%.
As for `CN1[C@@H](C(C)(C)C)C(O)=C(C(=O)Nc2ccc(C(F)(F)F)cc2-c2ccc(C(F)(F)F)nc2)C(=O)N1Cc1ccc(OCCN2CCOCC2)c(F)c1F` [Example 266], the figure is 62%; as for `C[C@]12CCCN1N(Cc1ccc(OCCN3CCOCC3)c(F)c1F)C(=O)C(C(=O)Nc1ccc(Cl)cc1-c1ccc(C(F)(F)F)nc1)=C2O` [Example 102], 65%; as for `Cc1ccccc1CN1C(=O)C(C(=O)Nc2ccc(C(F)(F)F)cc2-c2cc(C(F)(F)F)ncn2)=C(O)[C@@]2(C)CCCN12` [Example 185], 83%.
To `CN1N(Cc2ccc(OCCCCCOC[C@H](O)CO)c(F)c2F)C(=O)C(C(=O)Nc2ccc(C(F)(F)F)cc2-c2cc(C(F)(F)F)ncn2)=C(O)C12CCC2` [Example 391] belongs 42%; to `CN1N(Cc2ccc(OCCN3CCN(S(C)(=O)=O)CC3)c(F)c2F)C(=O)C(C(=O)Nc2ccc(C(F)(F)F)cc2-c2cc(C(F)(F)F)ncn2)=C(O)C12CCCC2` [Example 379], 37%; to `C#Cc1ccc(CN2C(=O)C(C(=O)Nc3ccc(C(F)(F)F)cc3-c3cc(C(F)(F)F)ncn3)=C(O)[C@@]3(C)CCCN23)c(F)c1F` [Example 126], 71%.
`COCCN1CC[C@@H](Oc2ccc(CN3C(=O)C(C(=O)Nc4ccc(C(F)(F)F)cc4-c4cc(C(F)(F)F)ncn4)=C(O)C4(CCC4)N3C)c(F)c2F)C1` [Example 405, 6-[[2,3-Difluoro-4-[(3R)-1-(2-methoxyethyl)pyrrolidin-3-yl]oxyphenyl]methyl]-9-hydroxy-5-methyl-7-oxo-N-[4-(trifluoromethyl)-2-[6-(trifluoromethyl)pyrimidin-4-yl]phenyl]-5,6-diazaspiro[3.5]non-8-ene-8-carboxamide]: the “Rate of uptake inhibition (%) (1 µM)” value is listed as 30%.
As for `CN(CCOc1ccc(CN2C(=O)C(C(=O)Nc3ccc(C(F)(F)F)cc3-c3cc(C(F)(F)F)ncn3)=C(O)C3(CCCC3)N2C)c(F)c1F)C1COC1` [Example 412, 7-(2,3-Difluoro-4-(2-(methyl(oxetan-3-yl)amino)ethoxy)benzyl)-10-hydroxy-6-methyl-8-oxo-N-(4-(trifluoromethyl)-2-(6-(trifluoromethyl)pyrimidin-4-yl)phenyl)-6,7-diazaspiro[4.5]dec-9-ene-9-carboxamide], the figure is 52%.
To `COc1cccc(CN2C(=O)C(C(=O)Nc3ccc(C(F)(F)F)cc3-c3ccc(C(F)(F)F)nc3)=C(O)[C@@]3(C)CCCN23)c1OC` [Example 175] belongs 85%.

The values above are taken from EP3928779A1 (Chugai Seiyaku Kabushiki Kaisha, priority 2014, dated 2016).
